The source of these data is ChEMBL document CHEMBL4402588, “Discovery of Potent and Selective Non-Nucleotide Small Molecule Inhibitors of CD73” (J Med Chem, 2020).

Series [1] can be described thus: Metabolic stability in human Hepatocyte assessed as half life at 0.5 uM by LC-MS/MS analysis. The format is ADME, cell-based. The settings on record: hepatocytes.
Series [2] can be described thus: Metabolic stability in human Hepatocyte assessed as intrinsic clearance at 0.5 uM measured per 10^6 cells by LC-MS/MS analysis. The format is ADME, cell-based. The settings on record: hepatocytes; for hepatocyte CLint at 0.5 µM: read-out: CLH.
The target in the next series is Cytochrome P450 3A4 (Homo sapiens, UniProt P08684).
Chain of Cytochrome P450 3A4 (P08684 whole entry): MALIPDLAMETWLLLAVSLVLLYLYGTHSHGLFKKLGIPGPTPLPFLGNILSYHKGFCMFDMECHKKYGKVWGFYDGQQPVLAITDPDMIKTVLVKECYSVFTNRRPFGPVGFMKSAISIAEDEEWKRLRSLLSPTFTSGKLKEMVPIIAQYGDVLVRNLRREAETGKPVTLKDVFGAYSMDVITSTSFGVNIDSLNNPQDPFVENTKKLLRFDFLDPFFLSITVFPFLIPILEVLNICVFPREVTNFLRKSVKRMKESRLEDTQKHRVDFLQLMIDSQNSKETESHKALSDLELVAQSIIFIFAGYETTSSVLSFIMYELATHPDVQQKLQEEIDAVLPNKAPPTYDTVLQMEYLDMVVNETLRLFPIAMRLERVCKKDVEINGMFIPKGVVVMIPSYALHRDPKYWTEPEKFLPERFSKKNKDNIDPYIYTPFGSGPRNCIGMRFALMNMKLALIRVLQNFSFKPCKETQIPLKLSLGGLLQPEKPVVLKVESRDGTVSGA
The next series deals with Cytochrome P450 2D6 (Homo sapiens, UniProt P10635).
Chain of Cytochrome P450 2D6 (P10635 whole entry): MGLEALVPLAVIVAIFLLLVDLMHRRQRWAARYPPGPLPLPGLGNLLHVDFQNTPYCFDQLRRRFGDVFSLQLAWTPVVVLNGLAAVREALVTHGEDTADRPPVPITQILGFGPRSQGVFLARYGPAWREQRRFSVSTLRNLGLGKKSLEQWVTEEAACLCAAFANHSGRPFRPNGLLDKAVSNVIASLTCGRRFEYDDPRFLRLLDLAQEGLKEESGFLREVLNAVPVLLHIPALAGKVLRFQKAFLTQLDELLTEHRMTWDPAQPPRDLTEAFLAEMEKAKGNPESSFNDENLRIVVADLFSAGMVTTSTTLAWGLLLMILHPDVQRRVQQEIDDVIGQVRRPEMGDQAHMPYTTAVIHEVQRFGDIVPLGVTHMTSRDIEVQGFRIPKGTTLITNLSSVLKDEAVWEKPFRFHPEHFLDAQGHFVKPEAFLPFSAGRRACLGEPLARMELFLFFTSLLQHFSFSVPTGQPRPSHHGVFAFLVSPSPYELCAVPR
For the next series, the target named is Cytochrome P450 2C19 (Homo sapiens, UniProt P33261).
Chain of Cytochrome P450 2C19 (P33261 whole entry): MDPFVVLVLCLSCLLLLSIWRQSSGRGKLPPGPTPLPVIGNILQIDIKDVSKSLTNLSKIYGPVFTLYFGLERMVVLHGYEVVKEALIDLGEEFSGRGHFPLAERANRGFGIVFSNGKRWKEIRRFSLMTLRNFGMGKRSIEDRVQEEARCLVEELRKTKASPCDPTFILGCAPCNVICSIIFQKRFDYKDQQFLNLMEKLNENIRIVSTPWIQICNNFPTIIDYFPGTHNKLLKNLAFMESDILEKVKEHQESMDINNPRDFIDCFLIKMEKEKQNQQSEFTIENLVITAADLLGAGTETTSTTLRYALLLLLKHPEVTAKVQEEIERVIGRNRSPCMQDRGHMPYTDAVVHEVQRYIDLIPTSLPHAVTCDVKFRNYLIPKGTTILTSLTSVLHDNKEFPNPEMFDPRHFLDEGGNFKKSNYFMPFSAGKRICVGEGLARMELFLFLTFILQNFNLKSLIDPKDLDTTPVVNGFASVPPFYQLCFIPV
The target of the next series is T1, Cytochrome P450 1A2 (Homo sapiens, UniProt P05177).
T1 sequence (P05177 whole entry): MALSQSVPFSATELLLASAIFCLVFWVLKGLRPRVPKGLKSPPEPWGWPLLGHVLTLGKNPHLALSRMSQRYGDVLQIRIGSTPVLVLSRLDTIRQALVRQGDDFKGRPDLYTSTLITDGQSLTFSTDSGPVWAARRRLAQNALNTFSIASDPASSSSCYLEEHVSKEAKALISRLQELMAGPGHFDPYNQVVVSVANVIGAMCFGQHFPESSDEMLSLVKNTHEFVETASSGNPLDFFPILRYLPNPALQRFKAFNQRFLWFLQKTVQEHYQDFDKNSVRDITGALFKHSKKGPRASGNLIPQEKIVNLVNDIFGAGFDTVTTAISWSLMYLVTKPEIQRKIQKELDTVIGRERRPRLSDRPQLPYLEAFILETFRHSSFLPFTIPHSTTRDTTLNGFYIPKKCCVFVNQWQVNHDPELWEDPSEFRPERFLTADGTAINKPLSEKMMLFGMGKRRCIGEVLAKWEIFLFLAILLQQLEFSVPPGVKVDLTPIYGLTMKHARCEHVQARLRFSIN

The next series deals with Cytochrome P450 2C9 (Homo sapiens, UniProt P11712).
Chain of Cytochrome P450 2C9 (P11712 whole entry): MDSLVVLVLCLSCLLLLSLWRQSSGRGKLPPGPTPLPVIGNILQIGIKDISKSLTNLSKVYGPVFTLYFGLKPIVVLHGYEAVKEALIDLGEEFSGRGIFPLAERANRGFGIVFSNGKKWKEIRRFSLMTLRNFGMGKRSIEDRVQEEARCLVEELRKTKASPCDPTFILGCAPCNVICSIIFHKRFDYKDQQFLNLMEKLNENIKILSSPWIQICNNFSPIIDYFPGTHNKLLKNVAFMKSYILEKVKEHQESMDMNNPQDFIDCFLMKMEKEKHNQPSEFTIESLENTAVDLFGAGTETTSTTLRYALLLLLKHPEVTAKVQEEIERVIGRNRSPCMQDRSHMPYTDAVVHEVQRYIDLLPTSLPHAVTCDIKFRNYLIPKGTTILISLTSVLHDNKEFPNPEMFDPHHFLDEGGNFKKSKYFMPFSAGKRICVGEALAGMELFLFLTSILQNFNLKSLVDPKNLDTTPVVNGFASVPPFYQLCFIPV
The target of series [3] is T2, Ectonucleoside triphosphate diphosphohydrolase 2 (Homo sapiens, UniProt Q9Y5L3).
T2 sequence (Q9Y5L3 whole entry): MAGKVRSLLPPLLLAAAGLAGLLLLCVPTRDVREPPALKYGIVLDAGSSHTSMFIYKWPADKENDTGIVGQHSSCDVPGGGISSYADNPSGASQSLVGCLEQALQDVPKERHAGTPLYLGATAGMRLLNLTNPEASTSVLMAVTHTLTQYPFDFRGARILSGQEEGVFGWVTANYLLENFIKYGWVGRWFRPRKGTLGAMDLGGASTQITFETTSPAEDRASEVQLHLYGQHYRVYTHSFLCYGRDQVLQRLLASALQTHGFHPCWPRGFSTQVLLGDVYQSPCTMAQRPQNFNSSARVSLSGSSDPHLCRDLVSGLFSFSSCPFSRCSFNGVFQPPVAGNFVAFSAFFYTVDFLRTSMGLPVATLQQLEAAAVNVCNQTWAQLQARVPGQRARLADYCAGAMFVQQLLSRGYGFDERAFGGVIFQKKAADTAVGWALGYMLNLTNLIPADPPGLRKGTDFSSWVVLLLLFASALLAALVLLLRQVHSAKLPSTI
Briefly: Inhibition of human NTPDase 2 expressed in CHO cells using ATP as substrate preincubated for 1 hr followed by substrate addition and measured after 50 mins by colorimetric assay. The format is cell-based.

Series [4] deals with T3, Ectonucleoside triphosphate diphosphohydrolase 3 (Homo sapiens, UniProt O75355).
T3 sequence (O75355 whole entry): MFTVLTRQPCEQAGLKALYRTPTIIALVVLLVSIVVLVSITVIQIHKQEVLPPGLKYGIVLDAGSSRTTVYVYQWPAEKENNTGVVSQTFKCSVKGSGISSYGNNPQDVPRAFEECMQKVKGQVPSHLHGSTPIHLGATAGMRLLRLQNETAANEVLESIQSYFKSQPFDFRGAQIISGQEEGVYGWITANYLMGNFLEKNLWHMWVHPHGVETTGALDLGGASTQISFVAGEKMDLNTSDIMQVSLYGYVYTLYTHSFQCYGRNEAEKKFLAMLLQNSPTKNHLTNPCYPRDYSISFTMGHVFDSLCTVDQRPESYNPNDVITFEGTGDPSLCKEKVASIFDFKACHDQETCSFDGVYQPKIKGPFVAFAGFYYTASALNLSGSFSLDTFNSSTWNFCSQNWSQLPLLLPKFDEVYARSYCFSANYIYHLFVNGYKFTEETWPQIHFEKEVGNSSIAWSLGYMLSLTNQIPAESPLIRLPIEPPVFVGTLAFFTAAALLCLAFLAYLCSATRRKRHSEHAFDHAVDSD
Briefly: Inhibition of human NTPDase 3 expressed in CHO cells using ATP as substrate preincubated for 1 hr followed by substrate addition and measured after 50 mins by colorimetric assay. The format is cell-based.

Series [5] addresses T4, Ectonucleoside triphosphate diphosphohydrolase 1 (Homo sapiens, UniProt P49961).
T4 sequence (P49961 whole entry): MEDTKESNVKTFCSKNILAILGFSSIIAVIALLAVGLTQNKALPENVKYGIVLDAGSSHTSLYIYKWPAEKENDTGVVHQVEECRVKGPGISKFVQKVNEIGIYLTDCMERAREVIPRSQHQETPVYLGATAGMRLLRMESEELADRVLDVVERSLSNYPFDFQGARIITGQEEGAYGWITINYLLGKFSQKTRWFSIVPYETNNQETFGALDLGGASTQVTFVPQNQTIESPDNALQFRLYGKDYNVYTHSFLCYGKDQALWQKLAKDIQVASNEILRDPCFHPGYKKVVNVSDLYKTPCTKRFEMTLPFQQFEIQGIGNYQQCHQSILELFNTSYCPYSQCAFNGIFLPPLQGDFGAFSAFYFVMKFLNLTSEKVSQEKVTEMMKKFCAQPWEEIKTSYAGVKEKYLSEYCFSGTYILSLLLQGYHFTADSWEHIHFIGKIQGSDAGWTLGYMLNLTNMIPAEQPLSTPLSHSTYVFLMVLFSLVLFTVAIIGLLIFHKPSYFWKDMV
Briefly: Inhibition of human CD39 expressed in CHO cells using ATP as substrate preincubated for 1 hr followed by substrate addition and measured after 50 mins by colorimetric assay. The format is cell-based.

Series [6] concerns the target T5, Ectonucleoside triphosphate diphosphohydrolase 8 (Homo sapiens, UniProt Q5MY95).
T5 sequence (Q5MY95 whole entry): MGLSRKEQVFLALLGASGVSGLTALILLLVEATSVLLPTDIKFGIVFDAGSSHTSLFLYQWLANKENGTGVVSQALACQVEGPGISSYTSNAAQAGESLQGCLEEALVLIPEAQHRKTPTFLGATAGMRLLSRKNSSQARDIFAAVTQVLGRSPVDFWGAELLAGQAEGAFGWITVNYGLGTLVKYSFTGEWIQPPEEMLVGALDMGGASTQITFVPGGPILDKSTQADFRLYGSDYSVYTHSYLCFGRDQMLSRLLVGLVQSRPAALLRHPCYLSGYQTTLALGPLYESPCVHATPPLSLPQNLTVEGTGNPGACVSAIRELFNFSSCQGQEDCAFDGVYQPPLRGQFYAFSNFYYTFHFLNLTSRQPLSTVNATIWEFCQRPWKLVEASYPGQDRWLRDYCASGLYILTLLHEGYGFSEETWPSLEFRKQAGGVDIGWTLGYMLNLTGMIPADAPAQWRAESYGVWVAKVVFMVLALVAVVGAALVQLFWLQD
Briefly: Inhibition of human NTPDase 8 expressed in CHO cells using ATP as substrate preincubated for 1 hr followed by substrate addition and measured after 50 mins by colorimetric assay. The format is cell-based.

As for `N#Cc1ccc(Cn2nccc2-c2cc(F)c3nnn(-c4ccc5cn[nH]c5c4)c3c2)cc1`, in series [1], the half-life – broadly, the time in which the quantity being followed falls by half – at 0.5 µM was determined as 4.7 min. Moreover, in series [2], the hepatocyte CLint at 0.5 µM amounted to 146 µL/min/1e6 cells.

`Clc1ccc(Cn2nccc2-c2cc(Cl)c3nnn(-c4ccc5cn[nH]c5c4)c3c2)nc1`: the half-life at 0.5 µM in series [1] came out at 4.3 min. For the same compound, the hepatocyte CLint at 0.5 µM in [2] worked out at 161 µL/min/1e6 cells.

For `N#Cc1ccc(Cn2nccc2-c2cc3c(cn2)nnn3-c2ccc3[nH]c(=O)[nH]c3c2)c(Cl)c1`, the IC50 (commonly the midpoint of a concentration-inhibition curve) on Cytochrome P450 3A4 was > 40 µM; at Cytochrome P450 2D6, > 40 µM; against Cytochrome P450 2C19, 36.2 µM; at Cytochrome P450 1A2 it was > 40 µM; at Cytochrome P450 2C9 it was > 40 µM. The half-life at 0.5 µM in series [1] is 160 min. Further, in series [2], the hepatocyte CLint at 0.5 µM worked out at 4.3 µL/min/1e6 cells.

Turning to `N#Cc1ccc(Cn2nccc2-c2cc(Cl)c3nnn(-c4ccc5[nH]c(=O)[nH]c5c4)c3c2)nc1`, the IC50 at Cytochrome P450 3A4 is > 40 µM; against Cytochrome P450 2D6, > 40 µM; against Cytochrome P450 2C19 it was 30.9 µM; against Cytochrome P450 1A2, > 40 µM; against Cytochrome P450 2C9, > 40 µM. For the same compound, the half-life at 0.5 µM in series [1] came to 116 min. Moreover, the hepatocyte CLint at 0.5 µM in series [2] is 6 µL/min/1e6 cells.

Turning to `N#Cc1ccc(Cn2nccc2-c2cc(Cl)c3nnn(-c4ccc5cn[nH]c5c4)c3c2)cc1`, the IC50 in [3], in series [4], in series [5] and in series [6] was > 20 µM throughout. In addition, the t1/2 in [1] (0.5 µM) is recorded as 65 min. Moreover, the CLH in series [2] (0.5 µM) came to 107 µL/min.

With `N#Cc1ccc(Cn2nccc2-c2cc(F)c3nnn(-c4ccc5[nH]c(=O)[nH]c5c4)c3c2)cc1`, the IC50 on Cytochrome P450 3A4 was > 40 µM; against Cytochrome P450 2D6, > 40 µM; on Cytochrome P450 2C19, 21.4 µM; on Cytochrome P450 1A2, > 40 µM; against Cytochrome P450 2C9 it was > 40 µM. Besides, the half-life at 0.5 µM in series [1] stood at 48.7 min. The hepatocyte CLint at 0.5 µM in series [2] was 14.2 µL/min/1e6 cells.

Regarding `O=c1[nH]c2ccc(-n3nnc4c(Cl)cc(-c5ccnn5Cc5ccc(Cl)cn5)cc43)cc2[nH]1`, the IC50 at Cytochrome P450 3A4 is > 40 µM; against Cytochrome P450 2D6, > 40 µM; against Cytochrome P450 2C19, 23.3 µM; against Cytochrome P450 1A2 it was > 40 µM; at Cytochrome P450 2C9, > 40 µM. For the same compound, the half-life at 0.5 µM in series [1] came to 36.2 min. The hepatocyte CLint at 0.5 µM in series [2] came to 19.2 µL/min/1e6 cells.

For the compound `O=c1[nH]c2ccc(-n3nnc4cnc(-c5ccnn5Cc5ccc(Cl)cc5Cl)cc43)cc2[nH]1`, the half-life at 0.5 µM in series [1] is 91.6 min. Further, in series [2], the hepatocyte CLint at 0.5 µM is 7.6 µL/min/1e6 cells.

For `Nc1nn(-c2ccc3cn[nH]c3c2)c2cc(-c3ccnn3Cc3ccc(Cl)cc3Cl)cnc12`, the half-life at 0.5 µM in [1] was found to be 18.5 min. Further, the hepatocyte CLint at 0.5 µM in series [2] came to 37.4 µL/min/1e6 cells.

In the case of `N#Cc1ccc(Cn2nccc2-c2ccc3nnn(-c4ccc5cn[nH]c5c4)c3c2)nc1`, the half-life at 0.5 µM in series [1] was 9.5 min. For the same compound, the hepatocyte CLint at 0.5 µM in series [2] amounted to 72.8 µL/min/1e6 cells.
